Here are results for one molecule from paper PMC12114375, “Discovery of Hydrazineyl Amide Derivative of Pseudolaric Acid B for Reprogramming Tumor-Associated Macrophages Against Tumor Growth” (Molecules, 2025).

A short description of data set [1]: In vivo pharmacokinetic study in mice. Conditions: 1 mg/kg i.v., mean ± SD. Also on record: species or system ICR mice. The method, then:
To investigate the druggability of compound 12, the pharmacokinetic (PK) properties of 12 were examined in mice. The mice were treated with 12 intravenously (i.v.) at a dose of 1 mg/kg, and the resulting PK parameters were recorded.
ICR mice (n = 3) were administered with the test compound via intravenous injection at 1 mg/kg. Blood samples were collected 0.083, 0.25, 0.5, 1, 2, 4, 8, and 24 h after administration. An aliquot of 10 μL of the plasma sample was deproteinized with 200 μL of a MeOH: ACN = 1: 1 solution containing an internal standard. After centrifugation, the supernatant was injected for LC–MS/MS analysis. A standard set of parameters, including the area under the curve (AUC0–∞), elimination half-life (T1/2), time to reach the maximum plasma concentration (Tmax), maximum plasma concentration (Cmax), plasma clearance (Cl), and mean residence time (MRT), were calculated using WinNonlin software.

The test system of the next data set is Hepa1-6 tumor. The experiment in a line: In vivo anti-tumor efficacy, Hepa1-6 subcutaneous tumor model. The following applies: Hepa1-6 model; for tumor growth inhibitory rate: intraperitoneal injections, once daily. From the text: Encouraged by its intriguing cellular activities, we investigated the anti-tumor effect of compound 12 in vivo. The Hepa1-6 liver cancer model, an immunocompetent macrophage-rich subcutaneous murine tumor model, was thus established. […] To further investigate whether the in vivo anti-tumor effect of compound 12 is associated with its inhibition of pro-tumoral macrophages and consequent activation of anti-tumor CD8^+ T cells, we analyzed the infiltration of macrophages and CD8^+ T cells in the tumor tissue of the Hepa1-6 model.
Animal procedures were approved by the Institutional Animal Care and Use Committee of the Shanghai Institute of Materia Medica (approval no. 2024-06-DJ-95). Mice (4–6 weeks old) were housed with five or six mice per cage in a specific pathogen-free room with a 12 h light/dark schedule at 25 °C ± 1 °C and were fed an autoclaved chow diet and water ad libitum. Hepa1-6 cells (2 × 10^6 cells) were subcutaneously implanted in the right flank of C57 BL/6 mice. […] The tumor volumes and body weights were measured twice per week. Tumor volume (TV) was calculated as follows: TV = (length × width^2)/2. Significant differences between the treated versus the vehicle groups were determined using the Student’s t-test. […] Viability was determined by staining with either the LIVE/DEAD® Fixable Violet Dead Cell Stain Kit (Invitrogen, Waltham, […], USA) or the Zombie Aqua™ Fixable Viability Kit (Biolegend, San Diego, CA, USA). Data were analyzed using FlowJo10.4 software.
Figure 4 Compound 12 inhibited Hepa1-6 tumor growth in vivo and remodeled the tumor microenvironment. […] The TVs (A) and body weights (B) are presented as the mean ± SEM. * p < 0.05 vs. the vehicle group, determined by the Student’s t-test. […] The infiltration of CD45^+ cells (C), TAMs (D), CD206^+ TAMs (E), ARG1^+ TAMs (F), CD8^+ T cells (G), GRZB^+ CD8^+ T cells (H), IFN γ^+ CD8^+ T cells (I), and TNF α^+ CD8^+ T cells (J) was tested (n = 8 mice in the vehicle group and n = 7 mice in the 12-treated group). * p < 0.05, ** p < 0.01, *** p < 0.001 vs. the vehicle group, determined by the Student’s t-test.

The structures appear in SMILES notation. Where two headings read alike, the source gives them in different places.

`COC(=O)C1=CC[C@@]23CC[C@@H]([C@@](C)(/C=C/C=C(\C)C(=O)NNCCO)OC2=O)[C@@]3(OC(C)=O)CC1` [compound 12, Methyl(3R,4S,4aS,9aR)-4a-acetoxy-3-((1E,3E)-5-(2-(2-hydroxyethyl)hydrazineyl)-4-methyl-5-oxopenta-1,3-dien-1-yl)-3-methyl-1-oxo-3,4,4a,5,6,9-hexahydro-1H-4,9a-ethanocyclohepta[c]pyran-7-carboxylate]: the time of peak concentration (Tmax) in data set [1] (n = 3, 1 mg/kg) was found to be 5 ± 0 min. Besides, in data set [1] (ICR, mouse, plasma, iv, n = 3), the AUC(0-inf) was determined as 363 ± 29.4 ng·h/mL, the Cmax was 32.1 ± 11.7 ng/mL, the clearance is 46.1 mL/min/kg and the half-life was 40.2 ± 6.88 h. The MRT inf in data set [1] (ICR, mouse, plasma, iv, n = 3, read-out: MRT0–∞) was found to be 63.1 ± 7.96 h. For the same molecule, the time of peak concentration (Tmax) in data set [1] (ICR, mouse, plasma, iv, 1 mg/kg, n = 3, read-out: Tmax) turned out to be 4.98 min. For the same molecule, in the data set on Hepa1-6 tumor (25 and 50 mg/kg), the “body weight during the treatment” value is recorded as “no obvious loss of body weight”. Besides, in the data set with Hepa1-6 tumor (25 mg/kg), the “tumor growth inhibitory rate” value came to 53.2%. In the data set on Hepa1-6 tumor (50 mg/kg), the “tumor growth inhibitory rate” value turned out to be 48.3%.
